# From paper PMC9103184, “Kunitz-Type Peptides from Sea Anemones Protect Neuronal Cells against Parkinson’s Disease Inductors via Inhibition of ROS Production and ATP-Induced P2X7 Receptor Activation” (International Journal of Molecular Sciences, 2022)
# Bridge positions count the residues as written; N and C are the ends. Ends that are not written are not given here.
# Key:
# trypsin [1] = molecular target: T1, trypsin (Bos taurus, UniProt P00760); assay: Residual trypsin-inhibitory activity after heating; assay type: biochemical; conditions: heating in the range from 60 °C to 100 °C; 7 μM peptide, 1.2 mM BAPNA, 37 °C, three parallel experiments
# T1 sequence (P00760 24-246): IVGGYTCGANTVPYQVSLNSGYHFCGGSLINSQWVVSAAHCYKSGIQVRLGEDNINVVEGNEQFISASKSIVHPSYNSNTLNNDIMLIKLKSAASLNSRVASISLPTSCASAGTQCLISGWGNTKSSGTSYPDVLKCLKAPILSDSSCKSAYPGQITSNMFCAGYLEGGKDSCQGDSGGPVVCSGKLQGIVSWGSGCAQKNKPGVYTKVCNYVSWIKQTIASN
# Protocol: Figure 6 The effects of temperature on the trypsin-inhibitory activity levels of peptides. Peptides were incubated at the temperatures for 30 min and their residual activities were measured.
# The temperature influence on the activity levels of peptides was assessed by measuring their residual inhibitory activity levels. After preincubation at temperatures ranging from 25 to 100 °C for 25 min, the peptide solutions were added to trypsin solution and the reaction mixtures were incubated for 10 min at 37 °C, then 1.2 mM BAPNA was added, followed by incubation at 37 °C for 30 min. The final concentration of the peptides was 7 μM. Substrate hydrolysis was measured at 410 nm. The residual activity was calculated based on the results of three parallel experiments according to the following equation [60]:% = (1 − residual enzyme activity/enzyme activity without inhibitor) × 100
# trypsin [2] = molecular target: T1, trypsin; assay: Trypsin inhibition (BAPNA substrate, Dixon's method); assay type: biochemical; conditions: BAPNA 0.6 and 1.2 mM, trypsin 208 nM, peptide 0–20 μM, three parallel experiments, read-out: trypsin inhibitory constant (Ki)
# Protocol: The trypsin-inhibitory activity of HCIQ1c9 was estimated according to the standard procedure using N-α-benzoyl-D,L-arginine p-nitroanilide (BAPNA) (Sigma-Aldrich, St. Louis, MO, USA) as a substrate. The trypsin inhibition constant was determined using Dyxon’s method using substrate concentrations of 0.6 and 1.2 mM. The trypsin concentration was 208 nM. The range of peptide concentrations was 0–20 μM. The constant was calculated based on the results of three parallel experiments. Computational error limits were in the range of 0.1–0.3%.
# TRPV1 = conditions: cited from earlier work
# 6-OHDA-treated cells = conditions: 6-OHDA model; cited from earlier work
Substance,decrease in trypsin-inhibitory activity after heating (trypsin [1]),Ki (trypsin [2]) [µM],activity on TRPV1 (TRPV1),decrease in ROS production below the control (6-OHDA-treated cells)
"IQGNICSEPKKVGRCRRSFPRFYFDSETGKCTPFIYGGCGGNGNNFETLHACRAICRA (disulfide 6-56, 15-39, 31-52) [HCIQ1c9]",30–70%,0.63,,
"HCRG21: Kunitz-type peptide from H. crispa, P0DL86; blocker of TRPV1 (RGICSEPKVVGPCTAYFRRFYFDSETGKCTPFIYGGCEGNGNNFETLRACRAICRA; UniProt P0DL86 1-56, looked up)",,,blocker of TRPV1,up to 87%
